Source: patent publication US6689756B2, “Treatment of neurological disease” (Integra LifeSciences Corporation, priority 2001, dated 2004)

Assay: oxygen carrying capacity of nutrient formulation
Assay type: physicochemical
Details: F44E formulations compared with the perfluorodecalin nutrient solution of Bell et al., Neurology 37:133, 1987
Description: where m and n or independently at least 1 and m+n equals 6 to 10. Preferably, the double bond is trans. One preferred poly-fluorinated, oxygen-carrying compound is trans-Bis-perfluorobutyl ethylene (m and n each equal 4), which is also known as F44E. F44E formulations have a 25% greater oxygen carrying capacity than that of a prior nutrient solution made with perfluorodecalin, Bell et al., Neurology 37:133, 1987. Formulations comprising F44E are less viscous and relatively easier to perfuse.

greater oxygen carrying capacity than that of a prior nutrient solution made with perfluorodecalin: 25%
Structure (SMILES): FC(F)(F)C(F)(F)C(F)(F)C(F)(F)/C=C/C(F)(F)C(F)(F)C(F)(F)C(F)(F)F [F44E, trans-Bis-perfluorobutyl ethylene]
